Experimental findings from ChEMBL document CHEMBL4739717, “Methods of treating cartilage disorders through inhibition of clk and dyrk” (2020) are described below.

Experiment [1] can be described thus: Inhibition of IL1-beta induced MMP3 expression levels in human chondrocytes assessed as MMP3 levels incubated for 2hrs followed by IL1-beta stimulation and measured after overnight incubation by LANCE assay. The class given is functional, cell-based. Conditions: Chondrocyte. On the technique in general: TR-FRET usually uses a lanthanide donor and a delayed reading to cut background.

Experiment [2] has as its target Dual specificity tyrosine-phosphorylation-regulated kinase 1A (Homo sapiens, UniProt Q13627). Briefly: Inhibition of recombinant DYRK1A (unknown origin) using Ser/Thr 18 peptide as substrate incubated for 1 hr in presence of ATP by FRET assay.
A short description of experiment [3]: Effect on Wnt signaling pathway in human SW480 cells harbouring TCF/LEF luciferase reporter gene and SP5-Luc reporter gene incubated for 36 to 48 hrs by luminescence assay. The class given is cell-based. A general note: In a reporter assay the amount or activity of a reporter protein is the signal.

Usually EC50 stands for the concentration at which the effect is half-maximal. Consider `FC1(F)CCN(Cc2cncc(-c3cnc4[nH]nc(-c5nc6c(-c7ccoc7)nccc6[nH]5)c4c3)c2)C1`, for which the EC50 in experiment [1] came out at 0.1 nM; in experiment [2], 10 nM; in experiment [3], 162 nM.

Turning to `CCC1(N)CN(c2cncc(-c3ccc4[nH]nc(C)c4c3)n2)C1`, the EC50 stood at 3000 nM in experiment [1], 54 nM in experiment [2] and 1730 nM in experiment [3].

Regarding `O=C(Nc1ccc(CN2CCCC2)cc1)c1n[nH]c2ccc(-c3cnccn3)cc12`, the EC50 worked out at 7.1 nM in experiment [1], 4 nM in experiment [2] and 1660 nM in experiment [3].

`Cc1n[nH]c2ccc(-c3cncc(N4CC(C)(N)C4)n3)cc12`: the EC50 in experiment [1] came out at 1610 nM; in experiment [2], 63 nM; in experiment [3], 3510 nM.

For the compound `O=C(Nc1cnccn1)c1n[nH]c2ccc(-c3cncc(CN4CCCCCC4)c3)cc12`, the EC50 in experiment [1] came out at 3000 nM; in experiment [2], 2 nM; in experiment [3], 430 nM.

On to `CN1CCC(Oc2ncc(NC(=O)c3n[nH]c4cc(F)c(-c5cnn(C)c5)cc34)cc2F)CC1`, for which the values for the EC50 in experiment [1], in experiment [2] and in experiment [3] were 12.6 nM, 1 nM and 1150 nM, respectively.

For `Cn1ncc(-c2ccc3cnc(NC(=O)[C@H]4CC[C@H](CO)CC4)cc3c2)c1CN1CCCCC1`, the concentration for a half-maximal effect (EC50) in experiment [1] stood at 3000 nM; in experiment [2] it was 3 nM; in experiment [3], 594 nM.

For `CN1CCN(c2cc(C(=O)Nc3ncc4ccc(-c5cnn(C)c5)cc4n3)ccn2)CC1`, the concentration giving a half-maximal response (EC50) in experiment [1] worked out at 417 nM; in experiment [3], 468 nM.

For the compound `Cc1n[nH]c2ccc(-c3cncc(N4CCC(O)CC4)n3)cc12`, the EC50 in experiment [1] stood at 47.8 nM; in experiment [2], 22 nM; in experiment [3], 1900 nM.

In the case of `Cc1cc(-c2ccc3[nH]nc(C(=O)Nc4ccc(OC5CCN(C)CC5)cc4)c3c2)sn1`, the EC50 came to 44.2 nM in experiment [1], 3 nM in experiment [2] and 645 nM in experiment [3].

On to `CN1CC=C(c2cc(C(=O)Nc3cc4cc(-c5cncc(NC(C)(C)C)n5)cnc4cn3)ccn2)CC1`, for which the results for the concentration for a half-maximal effect (EC50) in experiment [1] and in experiment [3] were 3000 nM and 357 nM, respectively.

For `CC(C)OC(=O)N1CCC(n2cc(C(=O)Nc3cc4cc(-c5cnn(C)c5)ncc4cn3)cn2)CC1`, the concentration for a half-maximal effect (EC50) was found to be 154 nM in experiment [1] and 824 nM in experiment [3].

Regarding `Cn1cc(-c2ccc3cnc(NC(=O)c4ccc5nccnc5c4)cc3n2)cn1`, the values for the EC50 in experiment [1] and in experiment [3] were 3000 nM and 447 nM, respectively.

As for `Cc1[nH]nc(C(=O)Nc2ccc(CN3CCCC3)cc2)c1/C=C/c1cccnc1`, the EC50 in experiment [1] was determined as 1050 nM; in experiment [2], 33 nM; in experiment [3], 2150 nM.

Consider `O=C(Nc1ccc(OCCN2CCCC2)cc1)c1n[nH]cc1/C=C/c1cccnc1`, for which the values for the EC50 in experiment [1], in experiment [2] and in experiment [3] were 3000 nM, 4 nM and 1850 nM, respectively.

`Cc1ncc(C(=O)Nc2cc3cc(-c4cnc(C)n4C)ccc3cn2)s1`: the EC50 in experiment [1] was 3000 nM; in experiment [2] it was 1 nM; in experiment [3], 102 nM.

Take `O=C(Nc1cccnc1)c1n[nH]c2ncc(-c3cccnc3)cc12`: the EC50 in experiment [1] was 2.2 nM; in experiment [2] it was 6 nM; in experiment [3] it was 795 nM.

Regarding `O=C(Nc1cc2cc(-c3cncc(NC4CCNCC4)n3)ncc2cn1)C1CCOCC1`, the concentration for a half-maximal effect (EC50) was 46.6 nM in experiment [1] and 3640 nM in experiment [3].

`O=C(Nc1cc2cc(-c3cnn4c3CCNC4)ccc2cn1)c1ccc(OC(F)F)cc1`: the EC50 in experiment [1] was 1920 nM; in experiment [2], 6 nM; in experiment [3], 375 nM.

Regarding `CC(C)NC(=O)c1n[nH]c2ccc(-c3cncc(NC4CCNCC4)n3)cc12`, the results for the EC50 in experiment [1], in experiment [2] and in experiment [3] were 2740 nM, 1 nM and 2400 nM, respectively.

Turning to `O=C(Nc1cc2cc(-c3cncc(NCC4(F)CNC4)n3)ccc2cn1)C1CC1`, the values for the half-maximal effective concentration (EC50) in experiment [1] and in experiment [3] were 897 nM and 119 nM, respectively.

In the case of `CS(=O)(=O)c1ccc(NC(=O)c2n[nH]c3ccc(-c4cncc(CN5CCCCC5)c4)cc23)cn1`, the EC50 in experiment [1] came to 5.5 nM; in experiment [2], 1 nM; in experiment [3], 27 nM.

In the case of `CN1CCC(Oc2ccc(NC(=O)c3n[nH]c4ccc(-c5ccc(N)nc5)cc34)cc2)CC1`, the results for the EC50 in experiment [1], in experiment [2] and in experiment [3] were 4.9 nM, 4 nM and 477 nM, respectively.

Regarding `Cc1n[nH]c2ccc(-c3cncc(OCC4(F)CNC4)n3)cc12`, the EC50 in experiment [1] was 35 nM; in experiment [2] it was 25 nM; in experiment [3] it was 3250 nM.

Regarding `Cc1n[nH]c2ccc(-c3cncc(N4CCC[C@H](N)C4)n3)cc12`, the EC50 in experiment [1] amounted to 3000 nM; in experiment [2] it was 50 nM; in experiment [3], 1430 nM.

In the case of `Cc1ncc(-c2ccc3cnc(NC(=O)C4(F)CC4)cc3c2)n1C`, the values for the EC50 in experiment [1], in experiment [2] and in experiment [3] were 18.7 nM, 6 nM and 2210 nM, respectively.

On to `O=C(CC1CCNCC1)Nc1cncc(-c2ccc3[nH]nc(-c4nc5c(-c6ccsc6)nccc5[nH]4)c3n2)c1`, for which the EC50 in experiment [1] is 3000 nM; in experiment [2], 10 nM; in experiment [3], > 10000 nM.

With `CC(C)n1cc(C(=O)Nc2cc3cc(-c4cncn4C(C)C)ccc3cn2)cn1`, the values for the EC50 in experiment [1] and in experiment [3] were 4.6 nM and 115 nM, respectively.

As for `Cn1cc(-c2cc3c(C(=O)Nc4ccc5c(c4)CNC5)n[nH]c3cc2F)cn1`, the values for the EC50 in experiment [1], in experiment [2] and in experiment [3] were 1200 nM, 2 nM and 793 nM, respectively.

Regarding `Cc1[nH]nc(C(=O)Nc2ccc(OC3CCN(C)CC3)nc2)c1/C=C/c1cccnc1`, the EC50 in experiment [1] is 17.8 nM; in experiment [2], 20 nM; in experiment [3], > 10000 nM.

Consider `NC(=O)c1n[nH]c2ccc(-c3cncc(CN4CCCCC4)c3)cc12`, for which the EC50 in experiment [1] was 2.3 nM; in experiment [3] it was 1960 nM.

In the case of `O=C(Nc1ccc(CN2CCCC2)cc1)c1n[nH]c2ccc(-c3cncnc3)cc12`, the EC50 in experiment [1] amounted to 307 nM; in experiment [3] it was 1310 nM.

Turning to `Cn1cc(-c2ccc3cnc(NC(=O)c4ccc5cnccc5c4)cc3c2)cn1`, the 50% effective concentration (EC50) in experiment [1] amounted to 3000 nM.

Consider `CC(C)Nc1cncc(-c2ccc3cnc(NC(=O)c4cccc(C5CCN(C)CC5)c4)cc3c2)n1`, for which the concentration for a half-maximal effect (EC50) in experiment [1] worked out at 3000 nM; in experiment [3], 132 nM.

Regarding `O=C(Nc1ccc(N2CC(CO)(CO)C2)nc1)c1n[nH]c2ccc(-c3cncc(CN4CCCCC4)c3)cc12`, the EC50 stood at 6.7 nM in experiment [1], 2 nM in experiment [2] and 1500 nM in experiment [3].

For `Cc1ncc(-c2ccc3cnc(NC(=O)c4ccc(OC(C)C)cc4)cc3c2)n1C`, the EC50 in experiment [1] was 10.5 nM.

For `Cc1n[nH]c2ccc(-c3cc(OC[C@H](N)Cc4ccccc4)cnn3)cc12`, the values for the EC50 in experiment [1], in experiment [2] and in experiment [3] were 3000 nM, 32 nM and 1150 nM, respectively.

For the compound `CC(C)OC(=O)N1CCC(n2cc(C(=O)Nc3cc4cc(-c5cnn(C)c5)ccc4cn3)cn2)CC1`, the EC50 was 88.1 nM in experiment [1] and 54.5 nM in experiment [3].

For `O=C(Nc1cc2cc(-c3cncc(NC4CCNCC4)n3)ccc2cn1)C1CCCCC1`, the EC50 in experiment [1] is 3000 nM; in experiment [3], 319 nM.

`CN1CCN(c2cc(C(=O)Nc3cc4nc(-c5cnn(C)c5)ccc4cn3)ccn2)CC1`: the concentration giving a half-maximal response (EC50) stood at 3000 nM in experiment [1] and 102 nM in experiment [3].

On to `CN1CCN(c2cc(C(=O)Nc3cc4cc(-c5cnn(C6CC6)c5)ccc4cn3)ccn2)CC1`, for which the EC50 in experiment [1] was 12.2 nM.

As to `CN1Cc2ccc(C(=O)Nc3cc4cc(-c5cncn5C)ccc4cn3)cc2C1`, the EC50 in experiment [1] was determined as 3000 nM.

On to `Cc1ncc(C(=O)Nc2cc3nc(-c4cnc(C)n4C)ccc3cn2)s1`, for which the EC50 in experiment [1] was found to be 8.7 nM; in experiment [3], 107 nM.

Take `CN1CCC2(CC1)CN(c1cc(C(=O)Nc3cc4cc(-c5cnn(C)c5CO)ccc4cn3)ccn1)C2`: the concentration giving a half-maximal response (EC50) in experiment [1] came to 3000 nM.

Turning to `Cn1cc(-c2ccc3cnc(NC(=O)c4ccc5c(c4)CNCC5)cc3c2)cn1`, the EC50 in experiment [1] came to 1630 nM.

With `Cn1cncc1-c1ccc2cnc(NC(=O)c3ccnc(N4CCN(C5CC5)CC4)c3)cc2c1`, the EC50 in experiment [1] stood at 3000 nM.

With `CN(C)CCNc1cc(C(=O)Nc2cc3cc(-c4cnn(C)c4)ccc3cn2)ccn1`, the concentration giving a half-maximal response (EC50) in experiment [1] was 306 nM.

Regarding `CN1CCN(c2ccc(C(=O)Nc3cc4cc(-c5cnn6c5CN(CCF)CC6)ccc4cn3)cn2)CC1`, the EC50 in experiment [1] stood at 3000 nM.

For the compound `NC1CN(c2cc(C(=O)Nc3cc4cc(-c5cnco5)ccc4cn3)ccn2)C1`, in experiment [1], the EC50 amounted to 3000 nM.

As to `CN1CCC2(CC1)CN(c1cc(C(=O)Nc3cc4cc(-c5cnn(C)c5CN5CCCCC5)cnc4cn3)ccn1)C2`, the half-maximal effective concentration (EC50) in experiment [1] came to 3000 nM; in experiment [3], 607 nM.

With `Cc1n[nH]c2ccc(-c3cncc(OCCN)c3)cc12`, the EC50 in experiment [1] is 3000 nM; in experiment [3] it was 1640 nM.

As for `O=C(NCc1cc(F)cc(F)c1)c1n[nH]c2ccc(-c3cncc(CN4CCCCC4)c3)cc12`, the EC50 in experiment [1] amounted to 3000 nM; in experiment [3], 1820 nM.

For the compound `CN(C)Cc1ccc(C(=O)Nc2cc3cc(-c4cnn(C)c4)ccc3cn2)cc1`, the 50% effective concentration (EC50) in experiment [1] stood at 47.4 nM.

In the case of `CN1CCN(c2cc(C(=O)Nc3cc4cc(-c5cnc(N)s5)ccc4cn3)ccn2)CC1`, the EC50 in experiment [1] was found to be 0.4 nM.

In the case of `CN1CCN(c2cc(C(=O)Nc3cc4cc(-c5ccc(N)nc5)ccc4cn3)ccn2)CC1`, the EC50 was found to be 798 nM in experiment [1] and 710 nM in experiment [3].

As to `CN1CCN(c2ccc(C(=O)Nc3cc4cc(-c5cnn(C)c5)ccc4cn3)cn2)CC1`, in experiment [1], the concentration for a half-maximal effect (EC50) is 9.5 nM.

Take `CN1CCC(n2cc(C(=O)Nc3ncc4ccc(-c5cncc6[nH]ccc56)cc4n3)cn2)CC1`: the EC50 worked out at 3000 nM in experiment [1] and 1400 nM in experiment [3].

Turning to `Cc1n[nH]c2ccc(-c3cncc(OC[C@@H](N)Cc4ccccc4)c3)cc12`, the EC50 stood at 3000 nM in experiment [1] and 262 nM in experiment [3].

For the compound `CN1CCC(n2cc(C(=O)Nc3cc4cc(-c5cnc6cc[nH]c6c5)ccc4cn3)cn2)CC1`, the EC50 came out at 3000 nM in experiment [1] and 26.8 nM in experiment [3].

Turning to `O=C(Nc1cc2cc(-c3cncs3)ccc2cn1)c1ccc2c(c1)CNCC2`, the EC50 in experiment [1] turned out to be 3000 nM.

Take `CN1CCCN(c2cc(C(=O)Nc3cc4cc(-c5cnn(C)c5)ccc4cn3)ccn2)CC1`: the concentration giving a half-maximal response (EC50) in experiment [1] is 3000 nM.

Consider `Cc1nnc(C(=O)Nc2cc3cc(-c4cncn4C)ccc3cn2)s1`, for which the half-maximal effective concentration (EC50) in experiment [1] was 71.5 nM; in experiment [3] it was 1890 nM.
